Experimental findings from patent US20240238310A1, “MODULATION OF SEX STEROID HORMONE PRODUCTION AND ACTIVITY FOR TREATING AND PREVENTING HERNIAS” (Northwestern University, priority 2020, published 2024) are described below.

Structures are written as SMILES.

In this assay the test system is Arom^hum mice. The following applies: 3 weeks old mice; high-dose DHT via injection for 53 days; vs vehicle; p<0.005.

Method: 3-week-old mice were treated with vehicle (Veh) or DHT for 53 days.

Turning to `C[C@]12CCC(=O)C[C@@H]1CC[C@@H]1[C@@H]2CC[C@]2(C)[C@@H](O)CC[C@@H]12` [DHT, dihydrotestosterone], the hernia volume result was “significantly decreased”.
